In US20210244029A1, “ANTIMICROBIAL COMPOSITIONS” (Aseptic Health, LLC, priority 2019, published 2021):

Test system: Pseudomonas aeruginosa ATCC 27853
Test: Minimal inhibitory concentration (MIC) by serial 1:2 dilutions
Type: cell-based
Settings: MIC = greatest dilution at which 100% of a starting culture of 1 × 10^6 bacteria are killed

Sodium Chlorite [0.5% Sodium Chlorite]
MIC against Pseudomonas aeruginosa ATCC 27853: ⅛
